This is an account of results in US20240376121A1, “COMPOUNDS AND USES THEREOF” (Foghorn Therapeutics Inc., priority 2021, published 2024).

One assay addresses T1, HiBit-BRM fusion protein (Homo sapiens, UniProt P51531).
T1 construct: expressed in transfected cells
Put plainly: HiBiT-BRM cell-based degradation assay (Nano-Glo HiBiT Lytic Detection). To be noted: stable HeLa cell line expressing HiBiT-BRM, 24 h incubation; for BRM HiBit Degradation Maximum (%): top dose 30 μM; for DC50: read-out: BRM HiBit Degradation IC50. Summed up: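 HeLa cells stably expressing HiBiT-BRM were treated for 24 h with compounds (10-point 3-fold dilutions, 30 μM final top dose, in duplicate). HiBiT was detected by lytic LgBiT complementation luminescence. % degradation was normalized to DMSO (high control) and 2 μM of a reference BRM/BRG1 degrader (low control).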

Assay [1] deals with T2, HiBit-BRG1 fusion protein (Homo sapiens, UniProt P51532).
T2 construct: expressed in transfected cells
T2 sequence (P51532 whole entry, the tested form may be a part): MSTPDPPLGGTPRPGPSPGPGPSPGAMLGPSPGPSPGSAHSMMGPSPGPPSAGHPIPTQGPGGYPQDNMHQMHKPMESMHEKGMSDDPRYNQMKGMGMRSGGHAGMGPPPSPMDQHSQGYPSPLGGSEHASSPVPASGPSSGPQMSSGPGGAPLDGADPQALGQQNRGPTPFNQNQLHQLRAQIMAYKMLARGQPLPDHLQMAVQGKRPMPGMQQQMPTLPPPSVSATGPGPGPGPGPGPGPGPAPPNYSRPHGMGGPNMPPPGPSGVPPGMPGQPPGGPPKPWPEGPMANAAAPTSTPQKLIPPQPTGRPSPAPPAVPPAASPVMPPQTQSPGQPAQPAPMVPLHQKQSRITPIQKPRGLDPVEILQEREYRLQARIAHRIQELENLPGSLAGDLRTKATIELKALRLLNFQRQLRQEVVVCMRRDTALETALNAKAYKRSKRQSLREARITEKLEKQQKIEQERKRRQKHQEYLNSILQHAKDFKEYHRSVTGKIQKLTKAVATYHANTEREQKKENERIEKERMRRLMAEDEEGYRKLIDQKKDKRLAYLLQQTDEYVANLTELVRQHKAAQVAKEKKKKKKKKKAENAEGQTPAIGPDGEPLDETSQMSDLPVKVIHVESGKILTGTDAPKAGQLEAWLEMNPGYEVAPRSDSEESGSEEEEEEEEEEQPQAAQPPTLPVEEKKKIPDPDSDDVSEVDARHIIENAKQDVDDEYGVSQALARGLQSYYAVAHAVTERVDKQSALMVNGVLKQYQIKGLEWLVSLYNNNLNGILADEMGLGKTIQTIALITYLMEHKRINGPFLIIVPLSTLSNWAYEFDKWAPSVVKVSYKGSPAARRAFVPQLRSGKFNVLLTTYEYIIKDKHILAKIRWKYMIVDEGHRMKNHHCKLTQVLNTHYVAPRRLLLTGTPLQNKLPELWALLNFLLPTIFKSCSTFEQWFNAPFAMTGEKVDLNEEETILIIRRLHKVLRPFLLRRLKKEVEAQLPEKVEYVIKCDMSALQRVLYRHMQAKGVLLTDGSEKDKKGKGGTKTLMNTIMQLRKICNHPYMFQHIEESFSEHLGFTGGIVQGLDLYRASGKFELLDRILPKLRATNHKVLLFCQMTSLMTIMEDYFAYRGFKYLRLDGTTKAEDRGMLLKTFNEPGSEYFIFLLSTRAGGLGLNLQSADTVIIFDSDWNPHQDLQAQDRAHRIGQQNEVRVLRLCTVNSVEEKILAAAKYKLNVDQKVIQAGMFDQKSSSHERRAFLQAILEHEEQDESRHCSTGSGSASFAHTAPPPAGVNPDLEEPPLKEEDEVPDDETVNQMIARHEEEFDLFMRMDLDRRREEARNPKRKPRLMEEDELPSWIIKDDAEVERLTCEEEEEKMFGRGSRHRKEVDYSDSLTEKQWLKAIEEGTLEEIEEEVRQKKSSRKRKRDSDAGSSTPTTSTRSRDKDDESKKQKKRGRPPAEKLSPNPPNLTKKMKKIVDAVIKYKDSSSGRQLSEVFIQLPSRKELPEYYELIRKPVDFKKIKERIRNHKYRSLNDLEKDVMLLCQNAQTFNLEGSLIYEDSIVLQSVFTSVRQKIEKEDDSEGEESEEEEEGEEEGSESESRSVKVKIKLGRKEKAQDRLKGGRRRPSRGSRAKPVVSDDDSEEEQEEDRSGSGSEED
The experiment in a line: HiBiT-BRG1 cell-based degradation assay (Nano-Glo HiBiT Lytic Detection). To be noted: stable HeLa cell line expressing HiBit-BRG1 and LgBit, 24 h incubation; for Dmax: top dose 30 μM, read-out: BRG1 HiBit Degradation Maximum (%); for DC50: read-out: BRMG1 HiBit Degradation IC50. An outline of the steps: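 HeLa cells stably expressing HiBiT-BRG1 and LgBiT treated 24 h with 10-point 3-fold dilutions (top 30 μM, duplicate). Luminescence read after Nano-Glo HiBiT lytic reagent; % degradation relative to DMSO (high control) and 2 μM reference BRM/BRG1 degrader (low control).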

Molecules are shown by their SMILES.

T1 sequence (P51531 whole entry, the tested form may be a part): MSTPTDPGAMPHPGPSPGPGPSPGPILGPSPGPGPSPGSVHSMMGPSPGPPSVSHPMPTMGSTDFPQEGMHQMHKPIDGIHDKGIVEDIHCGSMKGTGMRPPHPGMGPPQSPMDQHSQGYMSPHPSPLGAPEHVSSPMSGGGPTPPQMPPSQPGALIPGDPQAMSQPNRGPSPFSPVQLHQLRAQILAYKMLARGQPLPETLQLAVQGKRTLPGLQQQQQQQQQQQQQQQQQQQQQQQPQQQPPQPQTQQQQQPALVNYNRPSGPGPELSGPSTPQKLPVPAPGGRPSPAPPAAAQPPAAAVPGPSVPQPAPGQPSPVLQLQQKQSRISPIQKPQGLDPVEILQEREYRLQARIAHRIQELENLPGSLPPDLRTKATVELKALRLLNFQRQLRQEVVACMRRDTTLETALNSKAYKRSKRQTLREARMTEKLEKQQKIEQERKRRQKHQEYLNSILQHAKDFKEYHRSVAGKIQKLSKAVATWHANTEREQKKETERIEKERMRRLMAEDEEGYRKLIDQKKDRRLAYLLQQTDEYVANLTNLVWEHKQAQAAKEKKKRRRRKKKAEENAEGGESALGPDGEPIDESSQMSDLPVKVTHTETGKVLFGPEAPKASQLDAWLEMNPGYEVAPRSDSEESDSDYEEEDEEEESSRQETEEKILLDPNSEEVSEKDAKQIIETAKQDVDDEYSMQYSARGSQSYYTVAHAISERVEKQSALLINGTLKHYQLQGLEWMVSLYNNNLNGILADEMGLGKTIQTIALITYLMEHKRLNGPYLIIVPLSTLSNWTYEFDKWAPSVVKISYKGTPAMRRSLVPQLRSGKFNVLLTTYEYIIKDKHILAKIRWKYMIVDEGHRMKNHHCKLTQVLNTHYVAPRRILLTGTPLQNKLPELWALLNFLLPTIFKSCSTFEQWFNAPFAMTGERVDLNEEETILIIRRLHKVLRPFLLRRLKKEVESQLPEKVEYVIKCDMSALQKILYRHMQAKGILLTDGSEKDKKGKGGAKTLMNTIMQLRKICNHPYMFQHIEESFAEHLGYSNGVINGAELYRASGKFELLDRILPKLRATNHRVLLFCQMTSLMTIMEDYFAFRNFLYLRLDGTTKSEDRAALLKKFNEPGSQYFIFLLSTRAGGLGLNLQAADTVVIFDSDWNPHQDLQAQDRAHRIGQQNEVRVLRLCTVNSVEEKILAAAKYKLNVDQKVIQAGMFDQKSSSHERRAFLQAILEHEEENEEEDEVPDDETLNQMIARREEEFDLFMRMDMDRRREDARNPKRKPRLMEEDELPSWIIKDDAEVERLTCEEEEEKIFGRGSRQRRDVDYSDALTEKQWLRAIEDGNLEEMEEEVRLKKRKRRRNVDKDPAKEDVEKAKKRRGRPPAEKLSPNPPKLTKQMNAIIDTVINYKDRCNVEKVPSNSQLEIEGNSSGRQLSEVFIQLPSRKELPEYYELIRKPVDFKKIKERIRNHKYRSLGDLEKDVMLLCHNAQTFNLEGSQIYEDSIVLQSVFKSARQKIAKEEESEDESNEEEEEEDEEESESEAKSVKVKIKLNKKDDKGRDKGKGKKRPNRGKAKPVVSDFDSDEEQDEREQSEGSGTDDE

With `Cc1ncsc1-c1ccc(CNC(=O)[C@@H]2C[C@@H](O)CN2C(=O)[C@@H](NC(=O)CCN2CCC(c3cc4nnc(-c5ccccc5O)cc4s3)CC2)C(C)(C)C)cc1` [Compound 78, (2S,4R)-4-hydroxy-1-((S)-2-(3-(4-(3-(2-hydroxyphenyl)thieno[3,2-c]pyridazin-6-yl)piperidin-1-yl)propanamido)-3,3-dimethylbutanoyl)-N-(4-(4-methylthiazol-5-yl)benzyl)pyrrolidine-2-carboxamide], at HiBit-BRM fusion protein, the “BRM HiBit Degradation Maximum (%)” value is “B (“B” indicates maximum degradation ≥ 50%)” and the DC50 was not below 100 nM. In assay [1], the Dmax is not below 75% and the DC50 is not below 1000 nM.
As for `Cc1ncsc1-c1ccc(CNC(=O)[C@@H]2C[C@@H](O)CN2C(=O)[C@@H](NC(=O)CCC(=O)N2CCC(c3cc4nnc(-c5ccccc5O)cc4s3)CC2)C(C)(C)C)cc1` [Compound 79, (2S,4R)-4-hydroxy-1-((S)-2-(4-(4-(3-(2-hydroxyphenyl)thieno[3,2-c]pyridazin-6-yl)piperidin-1-yl)-4-oxobutanamido)-3,3-dimethylbutanoyl)-N-(4-(4-methylthiazol-5-yl)benzyl)pyrrolidine-2-carboxamide], on HiBit-BRM fusion protein, the “BRM HiBit Degradation Maximum (%)” value is recorded as “C (“C” indicates maximum degradation < 50%)” and the DC50 was not below 100 nM. In assay [1], the Dmax is less than 50% and the DC50 is not below 1000 nM.
As for `Cc1ncsc1-c1ccc(CNC(=O)[C@@H]2C[C@@H](O)CN2C(=O)[C@@H](NC(=O)CCCC(=O)N2CCC(c3cc4nnc(-c5ccccc5O)cc4s3)CC2)C(C)(C)C)cc1` [Compound 80, (2S,4R)-4-hydroxy-1-((S)-2-(5-(4-(3-(2-hydroxyphenyl)thieno[3,2-c]pyridazin-6-yl)piperidin-1-yl)-5-oxopentanamido)-3,3-dimethylbutanoyl)-N-(4-(4-methylthiazol-5-yl)benzyl)pyrrolidine-2-carboxamide], on HiBit-BRM fusion protein, the “BRM HiBit Degradation Maximum (%)” value was “B (“B” indicates maximum degradation ≥ 50%)” and the DC50 was not below 100 nM. In addition, in assay [1], the Dmax is less than 50% and the DC50 was not below 1000 nM.
On to `Cc1ncsc1-c1ccc(CNC(=O)[C@@H]2C[C@@H](O)CN2C(=O)[C@@H](NC(=O)C2(F)CC2)C(C)(C)C)c(OCCCN2CCC(c3sc4nnc(-c5ccccc5O)cc4c3C)CC2)c1` [Compound 81, (2S,4R)-1-((S)-2-(1-fluorocyclopropane-1-carboxamido)-3,3-dimethylbutanoyl)-4-hydroxy-N-(2-(3-(4-(3-(2-hydroxyphenyl)-5-methylthieno[2,3-c]pyridazin-6-yl)piperidin-1-yl)propoxy)-4-(4-methylthiazol-5-yl)benzyl)pyrrolidine-2-carboxamide], for which, on HiBit-BRM fusion protein, the “BRM HiBit Degradation Maximum (%)” value is listed as “B (“B” indicates maximum degradation ≥ 50%)” and the DC50 was not below 10 nM. In assay [1], the Dmax was less than 50% and the DC50 was not below 10 nM.
Consider `Cc1ncsc1-c1ccc(CNC(=O)[C@@H]2C[C@@H](O)CN2C(=O)[C@@H](NC(=O)C2(F)CC2)C(C)(C)C)c(OCC(=O)N2CCC(c3sc4nnc(-c5ccccc5O)cc4c3C)CC2)c1` [Compound 82, (2S,4R)-1-((S)-2-(1-fluorocyclopropane-1-carboxamido)-3,3-dimethylbutanoyl)-4-hydroxy-N-(2-(2-(4-(3-(2-hydroxyphenyl)-5-methylthieno[2,3-c]pyridazin-6-yl)piperidin-1-yl)-2-oxoethoxy)-4-(4-methylthiazol-5-yl)benzyl)pyrrolidine-2-carboxamide], for which, at HiBit-BRM fusion protein, the “BRM HiBit Degradation Maximum (%)” value was “C (“C” indicates maximum degradation < 50%)” and the DC50 was not below 1000 nM. In assay [1], the Dmax is less than 50% and the DC50 was not below 1000 nM.
On to `Cc1ncsc1-c1ccc(CNC(=O)[C@@H]2C[C@@H](O)CN2C(=O)[C@@H](NC(=O)C2(F)CC2)C(C)(C)C)c(OCCN2CCC(c3sc4nnc(-c5ccccc5O)cc4c3C)CC2)c1` [Compound 83, (2S,4R)-1-((S)-2-(1-fluorocyclopropane-1-carboxamido)-3,3-dimethylbutanoyl)-4-hydroxy-N-(2-(2-(4-(3-(2-hydroxyphenyl)-5-methylthieno[2,3-c]pyridazin-6-yl)piperidin-1-yl)ethoxy)-4-(4-methylthiazol-5-yl)benzyl)pyrrolidine-2-carboxamide], for which, at HiBit-BRM fusion protein, the “BRM HiBit Degradation Maximum (%)” value is reported as “C (“C” indicates maximum degradation < 50%)” and the DC50 was not below 1000 nM. Further, in assay [1], the Dmax was less than 50% and the DC50 is not below 1000 nM.
On to `Cc1ncsc1-c1ccc(CNC(=O)[C@@H]2C[C@@H](O)CN2C(=O)[C@@H](NC(=O)CCCCC(=O)N2CCC(c3cc4nnc(-c5ccccc5O)cc4s3)CC2)C(C)(C)C)cc1` [Compound 84, (2S,4R)-4-hydroxy-1-((S)-2-(6-(4-(3-(2-hydroxyphenyl)thieno[3,2-c]pyridazin-6-yl)piperidin-1-yl)-6-oxohexanamido)-3,3-dimethylbutanoyl)-N-(4-(4-methylthiazol-5-yl)benzyl)pyrrolidine-2-carboxamide], for which, at HiBit-BRM fusion protein, the “BRM HiBit Degradation Maximum (%)” value is on record as “C (“C” indicates maximum degradation < 50%)” and the DC50 is not below 100 nM. In assay [1], the Dmax was less than 50% and the DC50 was not below 1000 nM.
As for `Cc1ncsc1-c1ccc(CNC(=O)[C@@H]2C[C@@H](O)CN2C(=O)[C@@H](NC(=O)[C@H]2CC[C@H](c3cnc(N4CCC(c5sc6nnc(-c7ccccc7O)cc6c5C)CC4)nc3)CC2)C(C)(C)C)cc1` [Compound 85, (2S,4R)-4-hydroxy-1-((S)-2-((1r,4S)-4-(2-(4-(3-(2-hydroxyphenyl)-5-methylthieno[2,3-c]pyridazin-6-yl)piperidin-1-yl)pyrimidin-5-yl)cyclohexane-1-carboxamido)-3,3-dimethylbutanoyl)-N-(4-(4-methylthiazol-5-yl)benzyl)pyrrolidine-2-carboxamide], on HiBit-BRM fusion protein, the “BRM HiBit Degradation Maximum (%)” value is on record as “A (“A” indicates maximum degradation ≥ 75%)” and the DC50 is not below 10 nM. In assay [1], the Dmax was not below 75% and the DC50 was not below 100 nM.
Taken in the same sequence, the figures for `Cc1ncsc1-c1ccc(CNC(=O)[C@@H]2C[C@@H](O)CN2C(=O)[C@@H](NC(=O)[C@H]2CC[C@@H](c3cnc(N4CCC(c5sc6nnc(-c7ccccc7O)cc6c5C)CC4)nc3)CC2)C(C)(C)C)cc1` [Compound 86, (2S,4R)-4-hydroxy-1-((S)-2-((1s,4R)-4-(2-(4-(3-(2-hydroxyphenyl)-5-methylthieno[2,3-c]pyridazin-6-yl)piperidin-1-yl)pyrimidin-5-yl)cyclohexane-1-carboxamido)-3,3-dimethylbutanoyl)-N-(4-(4-methylthiazol-5-yl)benzyl)pyrrolidine-2-carboxamide] were “C (“C” indicates maximum degradation < 50%)”, not below 1000 nM, less than 50% and not below 1000 nM.
`Cc1ncsc1-c1ccc([C@H](C)NC(=O)[C@@H]2C[C@@H](O)CN2C(=O)[C@@H](c2cc(N3CCC(N4CCC(c5cc6nnc(-c7ccccc7O)cc6s5)CC4)CC3)no2)C(C)C)cc1` [Compound 87, (2S,4R)-4-hydroxy-1-((R)-2-(3-(4-(3-(2-hydroxyphenyl)thieno[3,2-c]pyridazin-6-yl)-[1,4′-bipiperidin]-1′-yl)isoxazol-5-yl)-3-methylbutanoyl)-N-((S)-1-(4-(4-methylthiazol-5-yl)phenyl)ethyl)pyrrolidine-2-carboxamide]: at HiBit-BRM fusion protein, the “BRM HiBit Degradation Maximum (%)” value is given as “A (“A” indicates maximum degradation ≥ 75%)” and the DC50 was less than 10 nM. For the same molecule, in assay [1], the Dmax is less than 50% and the DC50 was not below 1000 nM.
Turning to `Cc1ncsc1-c1ccc([C@H](C)NC(=O)[C@@H]2C[C@@H](O)CN2C(=O)[C@@H](c2cc(OCCN3CC4(CC(c5sc6nnc(-c7ccccc7O)cc6c5C)C4)C3)no2)C(C)C)cc1` [Compound 88, (2S,4R)-4-hydroxy-1-((R)-2-(3-(2-(6-(3-(2-hydroxyphenyl)-5-methylthieno[2,3-c]pyridazin-6-yl)-2-azaspiro[3.3]heptan-2-yl)ethoxy)isoxazol-5-yl)-3-methylbutanoyl)-N-((S)-1-(4-(4-methylthiazol-5-yl)phenyl)ethyl)pyrrolidine-2-carboxamide], on HiBit-BRM fusion protein, the “BRM HiBit Degradation Maximum (%)” value was “A (“A” indicates maximum degradation ≥ 75%)” and the DC50 was not below 10 nM. In assay [1], the Dmax is less than 50% and the DC50 was not below 1000 nM.
On to `Cc1ncsc1-c1ccc([C@H](C)NC(=O)[C@@H]2C[C@@H](O)CN2C(=O)[C@@H](c2cc(OCCN3CCC(c4c(C)sc5nnc(-c6ccccc6O)cc45)CC3)no2)C(C)C)cc1` [Compound 89, (2S,4R)-4-hydroxy-1-((R)-2-(3-(2-(4-(3-(2-hydroxyphenyl)-6-methylthieno[2,3-c]pyridazin-5-yl)piperidin-1-yl)ethoxy)isoxazol-5-yl)-3-methylbutanoyl)-N-((S)-1-(4-(4-methylthiazol-5-yl)phenyl)ethyl)pyrrolidine-2-carboxamide], for which, on HiBit-BRM fusion protein, the “BRM HiBit Degradation Maximum (%)” value is “C (“C” indicates maximum degradation < 50%)” and the DC50 is not below 1000 nM. Moreover, in assay [1], the Dmax was less than 50% and the DC50 was not below 1000 nM.
